Assay results reported in article PMC8041433 (Environmental Health Perspectives, 2021).
Values joined by “and” are separate entries in the source; they are usually repeats but may differ in a detail not shown here. Equal values may be shown once. Where a name gives a salt, the structure may show the parent alone. Read-outs that look alike come from different tables or passages of the source.

Tests used:
recombinant human AChE [1] = target: T1, recombinant human AChE (Homo sapiens, UniProt P22303); test: biochemical
T1 sequence (P22303 32-614): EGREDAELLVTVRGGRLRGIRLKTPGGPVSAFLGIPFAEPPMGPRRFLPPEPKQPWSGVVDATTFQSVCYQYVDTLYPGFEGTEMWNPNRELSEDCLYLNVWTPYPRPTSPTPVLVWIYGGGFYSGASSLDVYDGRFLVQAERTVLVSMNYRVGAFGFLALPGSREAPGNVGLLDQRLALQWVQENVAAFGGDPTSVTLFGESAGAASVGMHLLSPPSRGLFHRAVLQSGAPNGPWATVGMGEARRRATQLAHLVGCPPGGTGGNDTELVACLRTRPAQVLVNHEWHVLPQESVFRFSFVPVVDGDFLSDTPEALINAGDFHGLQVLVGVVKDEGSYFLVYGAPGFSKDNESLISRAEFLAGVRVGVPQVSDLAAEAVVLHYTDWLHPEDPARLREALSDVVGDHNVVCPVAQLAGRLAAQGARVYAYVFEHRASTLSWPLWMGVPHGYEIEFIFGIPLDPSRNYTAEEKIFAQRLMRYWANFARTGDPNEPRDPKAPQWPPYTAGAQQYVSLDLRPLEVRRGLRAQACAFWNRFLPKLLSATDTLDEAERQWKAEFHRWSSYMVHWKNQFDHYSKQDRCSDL

[2] = target: AChE in neural stem cells (Homo sapiens, UniProt P22303); test: cell-based
Sequence of AChE in neural stem cells (P22303 32-614): as above

recombinant human AChE [3] = target: T1, recombinant human AChE; test: biochemical; remark: listed apart in the source
[4] = target: AChE in SH-SY5Y spheroids (Homo sapiens, UniProt P22303); test: cell-based; details: potency (IC50)
Sequence of AChE in SH-SY5Y spheroids (P22303 32-614): as above

recombinant human AChE [5] = target: T1, recombinant human AChE
recombinant human AChE [6] = target: T1, recombinant human AChE; test: biochemical; format: biochemical; details: for AC50: AC50 (uM)
recombinant human AChE [7] = target: T1, recombinant human AChE; test: biochemical; remark: listed apart in the source
[8] = target: AChE in neural stem cell spheroids (Homo sapiens, UniProt P22303); test: cell-based; details: for IC50: potency (IC50)
Sequence of AChE in neural stem cell spheroids (P22303 32-614): as above

AChE in SH-SY5Y cells = AChE in SH-SY5Y cells (Homo sapiens, UniProt P22303); test: cell-based
Sequence of AChE in SH-SY5Y cells (P22303 32-614): as above

[9] = potency (IC50), Enzyme with microsomes
[10] = Neural stem cell spheroid (24 h)
[11] = Neural stem cell spheroid (48 h)
[12] = potency (IC50), SH-SY5Y cells monolayer
For IR or R in this document: key: Reversible (R); Irreversible (IR); ND, not detected in enzyme-based AChE inhibition assay from current study.

Compound | CC-v2 (curve classes) (recombinant human AChE [1]) | IC50 (recombinant human AChE [1]; potency (IC50), Enzyme) [µM] | IC50 [2] [µM] | IC50 (recombinant human AChE [3]; [9]) [µM] | IC50 ([4]; SH-SY5Y spheroids (24 h)) [µM] | IC50 ([4]; SH-SY5Y spheroids (48 h)) [µM] | CC-v2 (curve classes) (recombinant human AChE [5]) | AC50 (recombinant human AChE [6]) | IC50 (recombinant human AChE [7]) [µM] | IC50 [8, 10] [µM] | IC50 [8, 11] [µM] | CC-v2 (curve classes) (AChE in SH-SY5Y cells) | IC50 (AChE in SH-SY5Y cells; IC50 (uM)) | IC50 (AChE in SH-SY5Y cells; [12]) [µM] | Efficacy (recombinant human AChE [1]) | Efficacy (recombinant human AChE [5]) | IR or R (recombinant human AChE [6]) | further results
CNC(=O)O/N=C/C(C)(C)[S+](C)[O-] (stereo not shown) [Aldicarb sulfoxide] | -1.1 | 0.41 ± 0.02 | 0.34 ± 0.04 | 0.68 ± 0.09 | 0.46 ± 0.08 | 0.56 | -1.1 | 498 nM and 789 nM and 885 nM and 993 nM and 1.11 µM and 559 nM (2×) and 198 nM and 627 nM | 0.78 ± 0.22 | 0.24 ± 0.03 | 0.27 ± 0.17 | -1.1 | 0.354 µM and 0.322 µM and 0.397 µM and 0.287 µM | 0.67 ± 0.04 | – | – | – | fold more potent than aldicarb (recombinant human AChE [1]): 15 fold; IC50 (recombinant human AChE [1]; IC50): 0.61 µM
CNC(=O)Oc1ccc(N(C)C)c(C)c1 [Aminocarb] | -1.1 | 7.92 ± 0.91 | 11.7 ± 2.1 | 8.21 ± 0.55 | 12.3 ± 9.41 | 6.85 ± 3.73 | -2.1 | 17.7 µM and 22.2 µM and 12.5 µM and 28 µM and 25 µM and 7.03 µM and 11.1 µM and 7.89 µM | 9.57 ± 0.62 | 25.7 ± 7.15 | 29.1 | -1.1 | 5.64 µM and 7.1 µM and 6.33 µM | 5 ± 0.57 | -98.887 | -71.886 | – | –
CCN1CCCC1CNC(=O)c1cc(S(=O)(=O)CC)c(N)cc1OC (stereo not shown) [Amisulpride, reference compound] | -2.2 | 14.3 | 17.2 | 21.8 | 11.1 | 28.6 | -2.4 | 17.2 µM (2×) and 6.85 µM and 19.3 µM (2×) and 3.43 µM and 15.3 µM and 21.7 µM | 24.3 | – | 12.1 | – | 21.9 µM and 34.7 µM and 38.9 µM | 30.7 | -62.971 | -30.734 | R | IC50 (recombinant human AChE [1]; IC50 (uM)): 15.5 µM; IC50 (recombinant human AChE [3]; IC50 (uM)): 38.9 µM; potency (IC50), Neural stem cell spheroid (24 h) [8]: Inactive
COP(=O)(OC)SCn1c(=O)oc2cc(Cl)cnc21 [Azamethiphos] | -1.1 | 1.91 ± 0.26 | 4.79 ± 0.31 | 6.34 ± 1.18 | 4.05 ± 2.65 | 3.3 ± 0.59 | -2.1 | 11.1 µM and 15.7 µM and 14 µM and 39.5 µM and 35.2 µM and 17.7 µM and 7.03 µM and 7.89 µM and 9.93 µM | 3.81 ± 0.25 | 1.82 ± 0.76 | 3.08 ± 0.77 | -1.1 | 3.56 µM and 3.17 µM | 2.81 ± 0.32 | -98.261 | -92.198 | – | –
CN1C(=O)COc2c(C(=O)NC3CN4CCC3CC4)cc(Cl)cc21 (stereo not shown) [Azasetron hydrochloride, reference compound] | -2.2 | 7.72 | 6.88 | 8.97 | 9.64 | 6.85 | 4 | 17.2 µM (2×) and 3.43 µM and 21.7 µM and 19.3 µM (2×) and 12.2 µM (2×) and 15.3 µM | 8.98 ± 0.61 | 16.5 | 18.8 | -2.1 and -2.2 | 38.9 µM and 34.7 µM and 17.4 µM | 6.6 | -34.351 | 0 | R | IC50 (recombinant human AChE [1]; IC50 (uM)): 30.9 µM
CN1CCCC(n2nc(Cc3ccc(Cl)cc3)c3ccccc3c2=O)CC1 (stereo not shown) [Azelastine (hydrochloride), reference compound] | – | 25.4 | 22.6 | 27.4 | 13.8 | 19.3 | – | 27.3 µM (3×) and 24.3 µM (2×) and 30.6 µM (2×) | 36.6 ± 10.3 | – | 4.45 | – | – | 20.9 | – | – | R | potency (IC50), Neural stem cell spheroid (24 h) [8]: Inactive
CCOP(=S)(OCC)SCn1nnc2ccccc2c1=O [Azinphos-ethyl] | -2.1 | 42.8 | 4.79 | 2.14 | 25.2 | 12 | -1.1 | 49.8 µM (2×) and 55.9 µM (2×) and 70.3 µM and 39.5 µM and 44.4 µM | 22.5 ± 4.21 | 2.23 | 4.36 | -1.1 | 12.6 µM and 11.2 µM and 15.9 µM | 10.9 | -105.247 | -98.316 | – | –
CNC(=O)Oc1cccc2c1OC(C)(C)O2 [Bendiocarb] | -1.1 | 0.51 ± 0.03 | 46.2 ± 3.12 | 0.88 | 44.7 ± 19.4 | 54.1 ± 7.44 | -1.1 | 70.3 µM (2×) and 78.9 µM and 88.5 µM (2×) and 55.9 µM and 62.7 µM | 0.92 ± 0.06 | 45.2 ± 10.3 | 47.1 | -1.1 | – | 1.07 ± 0.06 | – | – | R | –
[H]/N=C(\N/C(=N/[H])NCCCCCCNC(=N)NC(=N)Nc1ccc(Cl)cc1)Nc1ccc(Cl)cc1 [Chlorhexidine diacetate, reference compound] | -2.1 | 54.6 | 32.5 | – | 36.1 | 41 | 4 | 78.5 µM | – | 8.31 | 9.21 | -2.1 | 56.1 µM and 70.6 µM | 70.9 | -106.259 | 0 | R | IC50 (recombinant human AChE [1]; IC50 (uM)): 50 µM; potency (IC50), Enzyme with microsomes (recombinant human AChE [5]): Inactive; potency (IC50), Enzyme-based assay with heat-inactivated microsomes (recombinant human AChE [7]): Inactive
CCOP(=S)(OCC)Oc1ccc2c(C)c(Cl)c(=O)oc2c1 [Coumaphos] | 4 and -2.2 and -2.1 | – | 22.6 | 5.51 | 27.1 | 20.6 | – | 24.3 µM and 27.3 µM | – | 21.1 | 21.4 | 4 and -1.1 and -2.1 | 12.6 µM and 22.7 µM and 22.4 µM and 28.6 µM and 17.8 µM and 12.8 µM | – | – | – | – | AChE inhibition (result in words) (recombinant human AChE [1]): did not show effects; potency (IC50), Enzyme (recombinant human AChE [1]): Inactive; potency (IC50), Enzyme-based assay with heat-inactivated microsomes (recombinant human AChE [7]): Inactive; potency (IC50), SH-SY5Y cells monolayer (AChE in SH-SY5Y cells): Inactive
CCOP(=S)(OCC)Oc1cc(C)nc(C(C)C)n1 [Diazinon] | – | 19.4 ± 2.22 | 0.41 ± 0.11 | 22.6 ± 1.52 | 19 ± 11.8 | 20.1 ± 1.36 | – | 6.85 µM and 30.6 µM and 10.9 µM and 24.3 µM | – | 0.04 ± 0.01 | 0.09 ± 0.02 | 4 and -2.1 and -1.1 | – | 11.3 ± 1.44 | – | – | – | reversibility of AChE inhibition (result in words) (recombinant human AChE [6]): irreversibility; potency (IC50), Enzyme-based assay with heat-inactivated microsomes (recombinant human AChE [7]): Inactive
CCCCOc1ccc(C(=O)CCN2CCCCC2)cc1 [Dyclonine HCl, reference compound] | – | 20.9 ± 1.36 | 21.8 ± 2.5 | 31 ± 6.49 | 17.4 ± 3.65 | 23.5 ± 3.24 | – | 27.3 µM (3×) and 30.6 µM (3×) and 19.3 µM and 34.3 µM | 26.8 ± 10.1 | 16.3 ± 7.64 | 9.18 ± 9.47 | – | – | 20.2 ± 2.57 | – | – | R | –
CCc1ccc(C(=O)C(C)CN2CCCCC2)cc1.Cl (stereo not shown) [Eperisone hydrochloride, reference compound] | -2.2 | 27.4 | 19.3 | 38.7 | – | – | 4 | 10.9 µM (3×) and 21.7 µM and 15.3 µM (2×) and 17.2 µM | 40.1 ± 2.71 | 15 | 13.3 | -2.1 | 15.5 µM | 25.3 | -46.815 | 0 | R | –
COP(N)(=S)Oc1ccccc1C(=O)OC(C)C (stereo not shown) [Isocarbophos] | 4 | – | 27.8 | 8.21 | – | 41.5 | -1.1 | – | 55.9 | 29.9 | 23.1 | – | 89.4 µM | 54.3 ± 9.25 | 0 | -89.537 | – | AChE inhibition (result in words) (recombinant human AChE [1]): did not show effects; IC50 (recombinant human AChE [3]; IC50 (uM)): 2.83 µM
CN1C[C@H](CNC(=O)OCc2ccccc2)C[C@@H]2c3cccc4c3c(cn4C)C[C@H]21 [Metergoline, reference compound] | – | 5.46 ± 1.98 | 13.2 ± 0.85 | 21.7 | 1.73 ± 0.75 | 4.17 ± 0.27 | – | 21.7 µM and 12.2 µM (3×) and 13.7 µM and 27.3 µM and 9.68 µM (2×) and 10.9 µM | 20.9 ± 1.36 | 5.79 ± 1.63 | 5.8 ± 1.64 | – | 3.47 µM and 5.5 µM | 4.85 | – | – | – | –
CCOP(=S)(OCC)Oc1cnc2ccccc2n1 [Quinalphos] | – | 55.9 | 7.48 | 1.77 | 29.4 | 46.2 | – | – | 36.8 ± 4.7 | 1.64 | 2.94 | -2.1 and 4 | 35.6 µM | 46.4 | – | – | – | AC50 (recombinant human AChE [6]; activity_60): 49.8 µM and 62.7 µM
CCOP(=S)(OCC)SCSC(C)(C)C [Terbufos] | 4 | – | 2.31 | 4.27 | 2.19 | 35.4 | -2.1 | – | – | 1.83 | 2.75 | – | 89.4 µM | – | 0 | – | – | AChE inhibition (result in words) (recombinant human AChE [1]): did not show effects; potency (IC50), Enzyme (recombinant human AChE [1]): Inactive; IC50 (recombinant human AChE [3]; IC50 (uM)): 56.4 µM and 40.2 µM; potency (IC50), Enzyme-based assay with heat-inactivated microsomes (recombinant human AChE [7]): Inactive; potency (IC50), SH-SY5Y cells monolayer (AChE in SH-SY5Y cells): Inactive
